Assay results published in patent US9186318B2, “Quinolyl-containing hydroxamic acid compound and preparation method thereof, and pharmaceutical composition containing this compound and use thereof” (Beijing Konruns Pharmaceutical Co., Ltd, priority 2011, dated 2015).

Key:
[1] = Body weight of mice in the anti-tumor experiment; type: in vivo, BALB/c-nu/nu mice; settings: treatment group, 75 mg/kg oral once a day; after 14 days treatment
Procedure: GTL-16 gastric cancer cells were firstly cultured: GTL-16 cell lines were inoculated in RPM 1-1640 culture medium contain 10% FBS, 100 U/ml penicillin, 100 U/ml streptomycin and cultured under the condition of 37° C., 5% CO2 and 100% humidity in a carbon dioxide incubator. The logarithmic growth phase reached upon 24 h, and the cells completely covered the bottom of the culture flask at approximately 48 h after inoculation. Those with 80% of GTL-16 cells covering the bottom of the culture flask were digested and centrifuged at 1000 r/min for 5 min. The cells were diluted to 2×10^7/ml, and implanted subcutaneously in the right anterior axillary of the nude mice at 0.1 mL per mouse. Starting from 12 days after inoculation of tumor cells, the weight of the tumor-bearing nude mice and the size of tumors were measured, and the mice with tumor sizes ranging from 150-200 mm^3 were randomly divided into vehicle control group (Vehicle was 0.25% methanesulfonic acid) and treatment group in which the mice were treated with N1′-[3-fluoro-4-[[7-[[1-[2-(hydroxyamino)-2-oxoethyl]-4-piperidyl]methoxy]-6-methoxy-4-quinolyl]oxy]phenyl]-N1-(4-fluorophenyl)cyclopropane-1,1-dicarboxamide prepared in Example 1 with 6 mice each group. […] The tumor size of each animal was measured every 2 days. […]

[2] = test system: GTL-16 gastric cancer cells; assay: Anti-tumor experiment in xenograft nude mice; type: in vivo, BALB/c-nu/nu mice; settings: GTL-16 xenograft nude mice, 75 mg/kg oral gavage once a day; for Tumor Growth Inhibition (TGI): 14 days; for average tumor volume: after 14 days, mean±SD, n=6
From the text: In this example, N1′-[3-fluoro-4-[[7-[[1-[2-(hydroxyamino)-2-oxoethyl]-4-piperidyl]methoxy]-6-methoxy-4-quinolyl]oxy]phenyl]-N1-(4-fluorophenyl)cyclopropane-1,1-dicarboxamide prepared in Example 1 was used to conduct anti-tumor experiment in xenograft nude mice animal models of human gastric cancer. The method and results of the experiment were as follows.
4 to 5-week-old SPF level female BALB/c-nu/nu mice with body weight of 12 g to 16 g were purchased from Beijing Vital River Laboratory Animal Technology Co., Ltd., with the production license number: SCXK (Beijing) 2006. GTL-16 gastric cancer cells were purchased from Shanghai Institutes for Biological Sciences Cell Resource Center. RPM 1-1640 cell culture media, fetal bovine serum (FBS) and trypsin digestion solution were purchased from Gibco. Various antibiotics were purchased from Sigma.
GTL-16 gastric cancer cells were firstly cultured: GTL-16 cell lines were inoculated in RPM 1-1640 culture medium contain 10% FBS, 100 U/ml penicillin, 100 U/ml streptomycin and cultured under the condition of 37° C., 5% CO2 and 100% humidity in a carbon dioxide incubator. The logarithmic growth phase reached upon 24 h, and the cells completely covered the bottom of the culture flask at approximately 48 h after inoculation. Those with 80% of GTL-16 cells covering the bottom of the culture flask were digested and centrifuged at 1000 r/min for 5 min. The cells were diluted to 2×10^7/ml, and implanted subcutaneously in the right anterior axillary of the nude mice at 0.1 mL per mouse. Starting from 12 days after inoculation of tumor cells, the weight of the tumor-bearing nude mice and the size of tumors were measured, and the mice with tumor sizes ranging from 150-200 mm^3 were randomly divided into vehicle control group (Vehicle was 0.25% methanesulfonic acid) and treatment group in which the mice were treated with N1′-[3-fluoro-4-[[7-[[1-[2-(hydroxyamino)-2-oxoethyl]-4-piperidyl]methoxy]-6-methoxy-4-quinolyl]oxy]phenyl]-N1-(4-fluorophenyl)cyclopropane-1,1-dicarboxamide prepared in Example 1 with 6 mice each group. Thereafter, the nude mice were weighed daily and the oral administrations were performed at 0.1 mL/10 g body-weight through oral gavage method (75 mg/kg, once a day). The tumor size of each animal was measured every 2 days. 14 days later, the tumor-bearing mice were sacrificed by cervical dislocation and the tumors were removed and weighed. The calculation method of Tumor Growth Inhibition (TGI) was as follows: the experimental data were represented by mean±SD; TGI=[(Vvehicle group−Vtreatment group)÷Vvehicle group]×100%, wherein Vvehicle group represented the mice tumor volume of the vehicle group and Vtreatment group represented the mice tumor volume of the treatment group. […]

Structure (SMILES)	weight variation of mice [1] [%]	Tumor Growth Inhibition (TGI) [2] [%]	average tumor volume [2] [mm^3]
COc1cc2c(Oc3ccc(NC(=O)C4(C(=O)Nc5ccc(F)cc5)CC4)cc3F)ccnc2cc1OCC1CCN(CC(=O)NO)CC1 [Example 1, N1′-[3-fluoro-4-[[7-[[1-[2-(hydroxyamino)-2-oxoethyl]-4-piperidyl]methoxy]-6-methoxy-4-quinolyl]oxy]phenyl]-N1-(4-fluorophenyl)cyclopropane-1,1-dicarboxamide]	< 10	65	630.9±354.6
COc1cc2c(Oc3ccc(NC(=O)C4(C(=O)Nc5ccc(F)cc5)CC4)cc3F)ccnc2cc1OCCCC(=O)NO [Example 9, N1′-[3-fluoro-4-[[7-[4-(hydroxyamino)-4-oxobutoxy]-6-methoxy-4-quinolyl]oxy]phenyl]-N1-(4-fluorophenyl)cyclopropane-1,1-dicarboxamide]	–	87	241.1±131.4
